Measured values as given in publication PMC5004841, “Development of a rapid phenotypic test for HCV protease inhibitors with potential use in clinical decisions” (Genetics and Molecular Biology, 2016).

Columns and labels:
[1] = biological target: T1, HCV genotype 1b NS3-4A protease WT (Hepatitis C virus genotype 1b, UniProt Q9WMX2); experiment: FRET enzyme inhibition assay, NS3 WT (SensoLyte 520 HCV protease assay Kit); format: biochemical, hepatitis C virus (HCV) genotype 1b
T1 construct: covalently joined to the NS3 protease domain (aa 1-182) via an amino acid linker GSGS; 6x histidine tag (N); TEV protease cleavage site (N); NS4A central peptide (NS4A aa 21-32), fused N-terminally of NS3; made in house; host or cells: E. coli BL21 (λDE3)
T1 sequence (Q9WMX2 1027-1208 limits assumed): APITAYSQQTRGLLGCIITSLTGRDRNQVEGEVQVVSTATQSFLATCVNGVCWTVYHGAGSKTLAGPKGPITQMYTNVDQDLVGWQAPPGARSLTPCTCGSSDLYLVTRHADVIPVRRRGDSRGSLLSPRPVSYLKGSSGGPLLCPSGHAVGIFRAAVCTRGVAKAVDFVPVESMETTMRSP
Description: (§1) The HCV genotype 1b NS3-4A protease domain from the plasmid pFKI389 Luc-ubi-neo/NS3-3'/ET (kindly provided by Dr. Ralf Bartenschlager) was amplified with the antisense primer 5'-[…]-3'containing a BamHI enzyme restriction site and the sense primer 5'-[…]-3' containing a HindIII enzyme restriction site. This fragment was cloned into a pET21dhis-TEV bacterial expression vector (a pET21d plasmid, which was modified to codify a 6x histidine tag followed by a cleavage site recognized by the Tobacco Etch virus nTev protease at the protein N-terminus). The single chain NS3-4A protease contains the protease domain (182 amino acids) and a 20-aa portion of the cofactor NS4A ([Abrahim-Vieira et al., 2014]).
Protein expressions were carried out as described previously with some modifications to simplify techniques and to perform the protocol in a smaller inoculum volume ([Abrahim-Vieira et al., 2014]). Transformed BL21 (λDE3) cells were grown at 37°C in 500 mL of LB medium containing […] ampicilin until an OD600 of 0.6-0.8 was reached. Then, cultures were induced with 0.5 mM isopropyl-1-thio-β-D-galactopyranoside (IPTG) and incubated with shaking at 25 °C for 4 h. Cells expressing NS3-4A constructs were harvested by centrifugation and stored at −80 °C. […] Purified NS3-4A constructs were quantified with Micro BCA Protein Assay Kit (Thermo Scientific). […]

[2] = test system: HCV NS3-4A protease V36M; details: mutant V36M vs NS3 WT
Description: as §1
(§2) Protein expressions were carried out as described previously with some modifications to simplify techniques and to perform the protocol in a smaller inoculum volume ([Abrahim-Vieira et al., 2014]). Transformed BL21 (λDE3) cells were grown at 37°C in 500 mL of LB medium containing […] ampicilin until an OD600 of 0.6-0.8 was reached. Then, cultures were induced with 0.5 mM isopropyl-1-thio-β-D-galactopyranoside (IPTG) and incubated with shaking at 25 °C for 4 h. Cells expressing NS3-4A constructs were harvested by centrifugation and stored at −80 °C. All resuspension steps were performed at 4 °C. Frozen pellets were resuspended in 12.5 mL of buffer A (Tris-HCl 50 mM pH 7.5; NaCl 300 mM; 2 mM β-mercaptoethanol; 10% glycerol; 0.5% Triton X-100). After resuspension, lysates were treated with lysozyme (5 mg/mL) for 1 h with stirring, subjected to 20 cycles of 15 s of sonication and 30 s of resting. Lysates were cleared by centrifugation at 12.000 g for 30 min and the supernatant filtered with 0.22 μM filter units (Nalgene). After filtration, supernatants were applied in 2 mL of Ni-NTA Agarose (Life Technologies) previously washed with distilled water and equilibrated with buffer A. Agarose resin was washed three times with buffer A and recombinant proteins were eluted with buffer A with 125, 250 and 500 mM imidazol (buffer B). […] Fractions were pooled and dialyzed overnight against buffer A with SnakeSkin Dialysis Tubing 10K MWCO (Thermo Scientific). Purified NS3-4A constructs were quantified with Micro BCA Protein Assay Kit (Thermo Scientific).
(§3) All enzyme inhibition assays were performed in nonbinding black surface 96-well plates (Corning).

[3] = test system: HCV NS3-4A protease T54S + V170I; details: mutant T54S + V170I vs NS3 WT
Description: as §1, §2, §3

[4] = test system: HCV NS3-4A protease T54A; details: mutant T54A vs NS3 WT
Description: as §1, §2, §3

[5] = test system: HCV NS3-4A protease V170I; details: mutant V170I vs NS3 WT
Description: as §1, §2, §3

[6] = test system: HCV NS3-4A protease V158I; details: mutant V158I vs NS3 WT
Description: as §1, §2, §3

| Compound | IC50 [1] [nM] | fold change (mutant IC50 median/WT IC50 median) [2] [fold] | fold change (mutant IC50 median/WT IC50 median) [3] [fold] | fold change (mutant IC50 median/WT IC50 median) [4] [fold] | fold change (mutant IC50 median/WT IC50 median) [5] [fold] | fold change (mutant IC50 median/WT IC50 median) [6] [fold] |
| --- | --- | --- | --- | --- | --- | --- |
| COc1ccc2c(O[C@@H]3C[C@H]4C(=O)N[C@]5(C(=O)NS(=O)(=O)C6CC6)C[C@H]5/C=C\CCCCN(C)C(=O)[C@@H]4C3)cc(-c3nc(C(C)C)cs3)nc2c1C [Simeprevir] | 17 | 0.4 | 3.8 | 6.3 | 3.2 | 0.1 |
| CCC[C@H](NC(=O)[C@@H]1[C@H]2CCC[C@H]2CN1C(=O)[C@@H](NC(=O)[C@@H](NC(=O)c1cnccn1)C1CCCCC1)C(C)(C)C)C(=O)C(=O)NC1CC1 [Telaprevir] | 130 | – | – | – | – | – |
